Measured values taken from patent publication US8557853B2, “Aryl fluoroethyl ureas acting as alpha 2 adrenergic agents” (Allergan, Inc., priority 2007, dated 2013).
pEC50: −log10 of the molar value.

Experiments:
Assay type in all cases: cell-based
alpha2A receptor = target: T1, alpha2A receptor (Homo sapiens, UniProt P08913); experiment: RSAT (Receptor Selection and Amplification Technology) assay, alpha 2A; conditions: for pEC50 / Alpha 2A EC50: RSAT, transfected NIH-3T3 cells, "not active" = not active at concentrations less than 10 micromolar; for Alpha 2A IA: intrinsic activity: ratio of maximal effect of drug to maximal effect of standard full agonist brimonidine (UK14304)
T1 construct: expressed in transfected cells; host or cells: NIH-3T3 cells
T1 sequence (P08913 1-465): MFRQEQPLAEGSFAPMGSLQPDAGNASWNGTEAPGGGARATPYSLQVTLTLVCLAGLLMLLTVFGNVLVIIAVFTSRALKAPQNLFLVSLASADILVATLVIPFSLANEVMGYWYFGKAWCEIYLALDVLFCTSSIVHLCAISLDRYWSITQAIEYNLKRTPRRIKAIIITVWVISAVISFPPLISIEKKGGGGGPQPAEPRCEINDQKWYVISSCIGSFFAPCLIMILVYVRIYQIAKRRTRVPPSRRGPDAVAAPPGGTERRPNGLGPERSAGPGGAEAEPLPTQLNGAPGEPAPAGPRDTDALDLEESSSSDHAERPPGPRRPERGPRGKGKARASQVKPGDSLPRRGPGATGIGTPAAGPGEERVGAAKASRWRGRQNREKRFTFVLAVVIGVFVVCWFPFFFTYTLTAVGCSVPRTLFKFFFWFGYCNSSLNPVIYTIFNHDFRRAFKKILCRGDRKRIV
Excerpt: (§1) The aryl fluoroethyl ureas of the invention are agonists of alpha2 adrenergic receptors. […] Al, 1995, Pharmacol. Toxicol. 76, pp. 308-311 (incorporated herein by reference) and is also described below. Another reference pertinent to this assay is Conklin et al. (1993) Nature 363:274-6, Receptor Selection and Amplification Technology (RSAT) assay, also incorporated herein by reference.
(§2) The RSAT assay measures a receptor-mediated loss of contact inhibition that results in selective proliferation of receptor-containing cells in a mixed population of confluent cells. The increase in cell number is assessed with an appropriate transfected marker gene such as ∃-galactosidase, the activity of which can be easily measured in a 96-well format. Receptors that activate the G protein, Gq, elicit this response. Alpha 2 receptors, which normally couple to Gi, activate the RSAT response when coexpressed with a hybrid Gq protein that has a Gi receptor recognition domain, called Gq/i5.
(§3) NIH-3T3 cells are plated at a density of 2×10^6 cells in 15 cm dishes and maintained in Dulbecco's modified Eagle's medium supplemented with 10% calf serum. One day later, cells are cotransfected by calcium phosphate precipitation with mammalian expression plasmids encoding p-SV-β-galactosidase (5-10 μg), receptor (1-2 μg) and G protein (1-2 μg). 40 μg salmon sperm DNA may also be included in the transfection mixture. Fresh media is added on the following day and 1-2 days later, cells are harvested and frozen in 50 assay aliquots. Cells are thawed and 100 μl added to 100 μl aliquots of various concentrations of drugs in triplicate in 96-well dishes. Incubations continue 72-96 hr at 37° C. After washing with phosphate-buffered saline, ∃-galactosidase enzyme activity is determined by adding 200 μl of the chromogenic substrate (consisting of 3.5 mM o-nitrophenyl-β-D-galactopyranoside and 0.5% nonidet P-40 in phosphate buffered saline), incubating overnight at 30° C. and measuring optical density at 420 nm. The absorbance is a measure of enzyme activity, which depends on cell number and reflects a receptor-mediated cell proliferation. The efficacy or intrinsic activity is calculated as a ratio of the maximal effect of the drug to the maximal effect of a standard full agonist for each receptor subtype. Brimonidine, also called UK14304, the chemical structure of which is shown below, is used as the standard agonist for the alpha2A, alpha2B and alpha2C receptors.
(§4) The results of the RSAT assay with several exemplary compounds of the invention are disclosed in Table 1 below together with the chemical structures of these compounds. “Not active” means the compounds are not active at concentrations less than 10 micromolar.

alpha2C receptor = target: T2, alpha2C receptor (Homo sapiens, UniProt P18825); experiment: RSAT (Receptor Selection and Amplification Technology) assay, alpha 2C; conditions: for pEC50 / Alpha 2C EC50: RSAT, transfected NIH-3T3 cells, "not active" = not active at concentrations less than 10 micromolar; for Alpha 2C IA: intrinsic activity: ratio of maximal effect of drug to maximal effect of standard full agonist brimonidine (UK14304)
T2 construct: expressed in transfected cells; host or cells: NIH-3T3 cells
T2 sequence (P18825 1-462): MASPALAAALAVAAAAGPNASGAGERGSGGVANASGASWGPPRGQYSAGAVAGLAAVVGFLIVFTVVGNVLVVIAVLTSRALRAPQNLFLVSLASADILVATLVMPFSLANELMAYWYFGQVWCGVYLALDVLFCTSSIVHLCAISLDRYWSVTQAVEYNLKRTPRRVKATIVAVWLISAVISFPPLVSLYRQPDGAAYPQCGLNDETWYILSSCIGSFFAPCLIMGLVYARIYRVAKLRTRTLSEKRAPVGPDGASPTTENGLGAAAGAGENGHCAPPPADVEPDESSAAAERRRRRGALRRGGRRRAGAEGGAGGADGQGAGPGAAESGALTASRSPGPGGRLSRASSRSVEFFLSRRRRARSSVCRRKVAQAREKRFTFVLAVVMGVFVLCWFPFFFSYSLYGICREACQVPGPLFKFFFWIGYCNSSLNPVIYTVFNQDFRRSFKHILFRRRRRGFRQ
Excerpt: as §1, §2, §3, §4

alpha2B receptor = target: T3, alpha2B receptor (Homo sapiens, UniProt P18089); experiment: RSAT (Receptor Selection and Amplification Technology) assay, alpha 2B; conditions: for pEC50: RSAT, transfected NIH-3T3 cells, "not active" = not active at concentrations less than 10 micromolar, read-out: Alpha 2B EC50; for Alpha 2B IA: intrinsic activity: ratio of maximal effect of drug to maximal effect of standard full agonist brimonidine (UK14304)
T3 construct: expressed in transfected cells; host or cells: NIH-3T3 cells
T3 sequence (P18089 1-450): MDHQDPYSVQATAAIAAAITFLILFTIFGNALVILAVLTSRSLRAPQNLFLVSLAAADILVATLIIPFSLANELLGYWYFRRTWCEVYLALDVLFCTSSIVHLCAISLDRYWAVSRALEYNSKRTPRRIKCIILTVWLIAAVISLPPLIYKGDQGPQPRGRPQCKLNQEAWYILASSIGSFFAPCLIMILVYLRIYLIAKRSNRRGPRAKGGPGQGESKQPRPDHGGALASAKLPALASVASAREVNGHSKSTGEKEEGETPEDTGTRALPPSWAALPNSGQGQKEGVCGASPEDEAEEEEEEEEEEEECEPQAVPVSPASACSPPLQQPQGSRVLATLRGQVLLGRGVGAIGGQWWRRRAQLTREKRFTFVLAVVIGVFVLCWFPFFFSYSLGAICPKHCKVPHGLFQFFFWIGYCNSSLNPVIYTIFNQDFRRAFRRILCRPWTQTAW
Procedure: as §2, §3

| Compound | pEC50 (alpha2A receptor) | Alpha 2A IA (alpha2A receptor) | pEC50 (alpha2C receptor) | Alpha 2C IA (alpha2C receptor) | pEC50 (alpha2B receptor) | Alpha 2B IA (alpha2B receptor) | Alpha 2A EC50 (alpha2A receptor) | Alpha 2C EC50 (alpha2C receptor) |
| --- | --- | --- | --- | --- | --- | --- | --- | --- |
| O=C(NCCF)NCc1cccc(Cl)c1F [Compound 1, 1-(3-chloro-2-fluoro-benzyl)-3-(2-fluoro-ethyl)-urea] | 5.76 | 0.54 | 5.95 | 0.71 | 6.91 | 1.0 |  |  |
| O=C(NCCF)NCc1cccc(F)c1 [Compound 4, 1-(3-fluoro-benzyl)-3-(2-fluoro-ethyl)-urea] |  |  | 6.43 | 0.47 | 6.66 | 1.14 | not active |  |
| O=C(NCCF)NCc1cccc(Br)c1 [Compound 7, 1-(3-bromo-benzyl)-3-(2-fluoro-ethyl)-urea] | < 5.70 | 0.46 | 6.25 | 0.81 | 6.45 | 0.84 |  |  |
| O=C(NCCF)NCc1cccc(I)c1 [Compound 9, 1-(2-fluoro-ethyl)-3-(3-iodo-benzyl)-urea] | 5.83 | 0.48 | 6.52 | 0.62 | 6.77 | 0.76 |  |  |
| O=C(NCCF)NCc1cccc(Cl)c1Cl [Compound 10, 1-(2,3-dichloro-benzyl)-3-(2-fluoro-ethyl)-urea] |  |  | 6.35 | 0.86 | 7.06 | 0.91 | not active |  |
| O=C(NCCF)NCc1cccc(C(F)(F)F)c1Cl [Compound 11, 1-(2-chloro-3-trifluoromethyl-benzyl)-3-(2-fluoro-ethyl)-urea] |  |  | 5.96 | 0.66 | 6.97 | 0.9 | not active |  |
| O=C(NCCF)NCc1cccc(I)c1I [Compound 13, 1-(2-fluoro-ethyl)-3-(2,3-diiodo-benzyl)-urea] | 6.00 | 0.59 | 6.72 | 0.72 | 7.02 | 0.86 |  |  |
| COc1c(Cl)cccc1CNC(=O)NCCF [Compound 16, 1-(3-chloro-2-methoxy-benzyl)-3-(2-fluoro-ethyl)-urea] | 5.99 | 0.66 | 6.14 | 0.72 | 7.03 | 1.32 |  |  |
| COc1c(Br)cccc1CNC(=O)NCCF [Compound 19, 1-(3-bromo-2-methoxy-benzyl)-3-(2-fluoro-ethyl)-urea] |  |  |  |  | 5.60 | 0.83 | not active | not active |
| O=C(NCCF)NCc1cccc2c1OCC2 [Compound 20, 1-(2,3-dihydro-benzofuran-7-ylmethyl)-3-(2-fluoro-ethyl)-urea] | 6.83 | 0.51 | 7.09 | 0.83 | 7.57 | 1.14 |  |  |
| O=C(NCCF)Nc1ccc2c(c1)CCC2 [Compound 21, 1-(2-fluoro-ethyl)-3-indan-5-yl-urea] |  |  |  |  | 6.94 | 0.33 | not active | not active |

Results, then the molecule that gave them:

| pEC50 (alpha2A receptor) | Alpha 2A IA (alpha2A receptor) | pEC50 (alpha2C receptor) | Alpha 2C IA (alpha2C receptor) | pEC50 (alpha2B receptor) | Alpha 2B IA (alpha2B receptor) | Alpha 2A EC50 (alpha2A receptor) | Alpha 2C EC50 (alpha2C receptor) | Compound |
| --- | --- | --- | --- | --- | --- | --- | --- | --- |
|  |  | 5.89 | 0.78 | 6.82 | 1.13 | not active |  | Cc1ccccc1CNC(=O)NCCF [Compound 2, 1-(2-fluoro-ethyl)-3-(2-methyl-benzyl)-urea] |
|  |  | 6.44 | 0.63 | 6.83 | 1.1 | not active |  | O=C(NCCF)NCc1ccccc1F [Compound 3, 1-(2-fluoro-benzyl)-3-(2-fluoro-ethyl)-urea] |
| 6.01 | 0.48 | 6.06 | 0.74 | 7.06 | 1.26 |  |  | Cc1cccc(CNC(=O)NCCF)c1 [Compound 5, 1-(2-fluoro-ethyl)-3-(3-methyl-benzyl)-urea] |
| 6.91 | 0.36 | 6.31 | 1.1 | 7.07 | 0.9 |  |  | O=C(NCCF)NCc1ccccc1Br [Compound 6, 1-(2-bromo-benzyl)-3-(2-fluoro-ethyl)-urea] |
|  |  | 6.02 | 0.93 | 6.24 | 0.8 | not active |  | O=C(NCCF)NCc1ccccc1C(F)(F)F [Compound 8, 1-(2-fluoro-ethyl)-3-(2-trifluoromethyl-benzyl)-urea] |
|  |  | 6.31 | 0.78 | 6.56 | 0.89 | not active |  | O=C(NCCF)NCc1ccccc1I [Compound 12, 1-(2-fluoro-ethyl)-3-(2-iodo-benzyl)-urea] |
| 6.44 | 0.34 | 7.00 | 0.66 | 8.07 | 0.85 |  |  | Cc1cccc(CNC(=O)NCCF)c1Cl [Compound 14, 1-(2-chloro-3-methyl-benzyl)-3-(2-fluoro-ethyl)-urea] |
| 6.65 | 0.46 | 6.53 | 0.88 | 7.60 | 1.3 |  |  | O=C(NCCF)NCc1cccc(Br)c1Cl [Compound 15, 1-(3-bromo-2-chloro-benzyl)-3-(2-fluoro-ethyl)-urea] |
| 6.17 | 0.79 | 6.16 | 0.93 | 7.40 | 1.25 |  |  | COc1c(C)cccc1CNC(=O)NCCF [Compound 17, 1-(2-fluoro-ethyl)-3-(2-methoxy-3-methyl-benzyl)-urea] |
| 6.40 | 0.36 | 5.86 | 0.94 | 7.40 | 1.24 |  |  | Cc1c(Cl)cccc1CNC(=O)NCCF [Compound 18, 1-(3-chloro-2-methyl-benzyl)-3-(2-fluoro-ethyl)-urea] |
